Like-named read-outs stand apart in the source and are kept apart here.
Columns and labels:
[1] = single intravenous injection; cited from earlier work
[2] = cited from earlier work
chronic hepatitis C = details: 90 μg/week vs no treatment; cited from earlier work
[3] = in vivo; cited from earlier work
[4] = cited from earlier work; remark: listed apart in the source
[5] = Dissolution of cholate for oral solution; type: physicochemical; details: aqueous sodium bicarbonate

## O=C[C@H](O)[C@@H](O)[C@@H](O)[C@H](O)CO [galactose]
[1]
  share of total plasma elimination due to distribution and metabolism outside the liver: 40%
  share of total plasma elimination due to hepatic clearance: Approximately 60%

## CC1(C)C(/C=C/C=C/C=C/C=C2\N(CCCCS(=O)(=O)O)c3ccc4ccccc4c3C2(C)C)=[N+](CCCCS(=O)(=O)[O-])c2ccc3ccccc3c21 [Indocyanine green]
[2]; administered intravenously
  first-pass hepatic extraction: up to 80%

## peginterferon alfa-2a [PegIFN]
Chronic hepatitis C
  effect on clinical or histological outcomes: did not affect clinical or histological outcomes

## Cc1cc(=O)n(-c2ccccc2)n1C [antipyrine]
[3]
  drug appearing unchanged in the urine: 5%

## CCN(CC)CC(=O)Nc1c(C)cccc1C [Lidocaine]
[4]; lower dose (less than 1 mg/kg such as 0.5 mg/kg) iv
  side effects (sensory symptoms): 30%
[4]; standard dose 1 mg/kg iv over 2 minutes
  side effects (sensory symptoms): 53%
[2]; in vivo
  first pass elimination: up to 81%

## C[C@H](CCC(=O)O)[C@H]1CC[C@H]2[C@@H]3[C@H](O)C[C@@H]4C[C@H](O)CC[C@]4(C)[C@H]3C[C@H](O)[C@]12C [Cholate, cholic acid]
[5]
  dissolution: easily dissolved

Reference: patent US10215746B2, “Methods for diagnosis and intervention of hepatic disorders” (The Regents of the University of Colorado, priority 2005, dated 2019)
